Measurements from US6914045B2, “Glycopeptide antibiotics” (Wyeth Holdings Corporation, priority 2001, dated 2005).
In brackets after ≈: the same amount, converted by molar mass.

Key:
Assay in all cases: in vitro antibacterial evaluation, MIC by broth dilution
Type in all cases: cell-based
[1] = tested on: Enterococcus sp.; conditions: broth dilution, 18 hours at 35° C.
How it was run: (§1)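 MIC = lowest antibiotic concentration preventing visible growth; inoculum 5×10^5 CFU/mL; drug range 64-0.06 μg/mL; Muller-Hinton II […]; NCCLS M7-A2 guidance.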

[2] = tested on: Staphylococcus sp.; conditions: broth dilution, 18 hours at 35° C.
How it was run: as §1

[3] = tested on: Streptococcus sp.; conditions: broth dilution, 18 hours at 35° C.
How it was run: as §1

[4] = tested on: Escherichia coli; conditions: 18 hours at 35° C.

COc1ccc(COCC2OC(OC3C(CO)OC(Oc4ccc(CC5NC(=O)C(C(C)c6ccccc6)NC(=O)CNC(=O)C(CO)NC(=O)C(C(O)C6CNC(=N)N6C6OC(CO)C(O)C(O)C6O)NC(=O)C(C(O)C6CNC(=N)N6)NC5=O)cc4)C(O)C3O)C(O)C(O)C2O)c2ccccc12 (stereo not shown) [Example 240]
MIC Enterococcus avium (GC 4558) [1]: 4 µg/mL (≈ 2.73 µM)
MIC Enterococcus faecalis (ATCC 29212) [1]: 16 µg/mL (≈ 10.9 µM)
MIC Enterococcus faecalis (GC 2242) [1]: 16 µg/mL (≈ 10.9 µM)
MIC Enterococcus faecalis (GC 2691) [1]: 8 µg/mL (≈ 5.46 µM)
MIC Enterococcus faecalis (GC 3059) [1]: 8 µg/mL (≈ 5.46 µM)
MIC Enterococcus faecalis (GC 4552) [1]: 16 µg/mL (≈ 10.9 µM)
MIC Enterococcus faecalis (GC 4553) [1]: 16 µg/mL (≈ 10.9 µM)
MIC Enterococcus faecalis (GC 4554) [1]: 16 µg/mL (≈ 10.9 µM)
MIC Enterococcus faecalis (GC 6189) [1]: 8 µg/mL (≈ 5.46 µM)
MIC Enterococcus faecium (GC 2243) [1]: 16 µg/mL (≈ 10.9 µM)
MIC Enterococcus faecium (GC 4556) [1]: 16 µg/mL (≈ 10.9 µM)
MIC Enterococcus faecium (GC 4557) [1]: 2 µg/mL (≈ 1.36 µM)
MIC Enterococcus faecalis (ATCC 29212) ([1]; strain ATCC 29212): 16 µg/mL (≈ 10.9 µM)
MIC Enterococcus faecium (GC 2243) ([1]; strain GC 2243): 16 µg/mL (≈ 10.9 µM)
MIC Enterococcus faecalis (GC 4552) ([1]; strain GC 4552): 16 µg/mL (≈ 10.9 µM)
MIC Enterococcus faecalis (GC 4553) ([1]; strain GC 4553): 16 µg/mL (≈ 10.9 µM)
MIC Enterococcus faecalis (GC 4554) ([1]; strain GC 4554): 16 µg/mL (≈ 10.9 µM)
MIC Enterococcus faecium (GC 4556) ([1]; strain GC 4556): 16 µg/mL (≈ 10.9 µM)
MIC Enterococcus faecium (GC 4557) ([1]; strain GC 4557): 2 µg/mL (≈ 1.36 µM)
MIC Enterococcus avium (GC 4558) ([1]; strain GC 4558): 4 µg/mL (≈ 2.73 µM)
MIC Enterococcus faecalis (GC 6189) ([1]; strain GC 6189): 8 µg/mL (≈ 5.46 µM)
MIC Enterococcus faecalis (GC 2242) ([1]; inoculum 5×10^5 CFU/mL, strain GC 2242): 16 µg/mL (≈ 10.9 µM)
MIC Enterococcus faecalis (GC 2691) ([1]; inoculum 5×10^5 CFU/mL, strain GC 2691): 8 µg/mL (≈ 5.46 µM)
MIC Enterococcus faecalis (GC 3059) ([1]; inoculum 5×10^5 CFU/mL, strain GC 3059): 8 µg/mL (≈ 5.46 µM)
MIC Coagulase Negative Staphylococcus (GC 4547) [2]: 4 µg/mL (≈ 2.73 µM)
MIC Coagulase Negative Staphylococcus (GC 4548) [2]: 2 µg/mL (≈ 1.36 µM)
MIC Coagulase Negative Staphylococcus (GC 4549) [2]: 2 µg/mL (≈ 1.36 µM)
MIC Coagulase Negative Staphylococcus (GC 4551) [2]: 2 µg/mL (≈ 1.36 µM)
MIC Coagulase Negative Staphylococcus (GC 6257) [2]: 2 µg/mL (≈ 1.36 µM)
MIC Staphylococcus aureus (ATCC 29213) [2]: 4 µg/mL (≈ 2.73 µM)
MIC Staphylococcus aureus (GC 1131) [2]: 4 µg/mL (≈ 2.73 µM)
MIC Staphylococcus aureus (GC 3051) [2]: 0.5 µg/mL (≈ 0.341 µM)
MIC Staphylococcus aureus (GC 3053) [2]: 4 µg/mL (≈ 2.73 µM)
MIC Staphylococcus aureus (GC 4541) [2]: 1 µg/mL (≈ 0.682 µM)
MIC Staphylococcus aureus (GC 4542) [2]: 2 µg/mL (≈ 1.36 µM)
MIC Staphylococcus aureus (GC 4544) [2]: 4 µg/mL (≈ 2.73 µM)
MIC Staphylococcus aureus (GC 4545) [2]: 4 µg/mL (≈ 2.73 µM)
MIC Staphylococcus aureus-SMITH (GC 4543) [2]: 2 µg/mL (≈ 1.36 µM)
MIC Staphylococcus haemolyticus (GC 4546) [2]: 2 µg/mL (≈ 1.36 µM)
MIC Staphylococcus aureus (ATCC 29213) ([2]; strain ATCC 29213): 4 µg/mL (≈ 2.73 µM)
MIC Staphylococcus aureus (GC 1131) ([2]; strain GC 1131): 4 µg/mL (≈ 2.73 µM)
MIC Staphylococcus aureus (GC 3051) ([2]; strain GC 3051): 0.5 µg/mL (≈ 0.341 µM)
MIC Staphylococcus aureus (GC 3053) ([2]; strain GC 3053): 4 µg/mL (≈ 2.73 µM)
MIC Staphylococcus aureus (GC 4541) ([2]; strain GC 4541): 1 µg/mL (≈ 0.682 µM)
MIC Staphylococcus aureus (GC 4542) ([2]; strain GC 4542): 2 µg/mL (≈ 1.36 µM)
MIC Staphylococcus aureus-SMITH (GC 4543) ([2]; strain GC 4543): 2 µg/mL (≈ 1.36 µM)
MIC Staphylococcus aureus (GC 4544) ([2]; strain GC 4544): 4 µg/mL (≈ 2.73 µM)
MIC Staphylococcus aureus (GC 4545) ([2]; strain GC 4545): 4 µg/mL (≈ 2.73 µM)
MIC Staphylococcus haemolyticus (GC 4546) ([2]; strain GC 4546): 2 µg/mL (≈ 1.36 µM)
MIC Coagulase Negative Staphylococcus (GC 4547) ([2]; strain GC 4547): 4 µg/mL (≈ 2.73 µM)
MIC Coagulase Negative Staphylococcus (GC 4548) ([2]; strain GC 4548): 2 µg/mL (≈ 1.36 µM)
MIC Coagulase Negative Staphylococcus (GC 4549) ([2]; strain GC 4549): 2 µg/mL (≈ 1.36 µM)
MIC Coagulase Negative Staphylococcus (GC 4551) ([2]; strain GC 4551): 2 µg/mL (≈ 1.36 µM)
MIC Coagulase Negative Staphylococcus (GC 6257) ([2]; strain GC 6257): 2 µg/mL (≈ 1.36 µM)
MIC Streptococcus agalactiae (GC 4564) [3]: 0.5 µg/mL (≈ 0.341 µM)
MIC Streptococcus pneumoniae (ATCC 6301) [3]: <0.12 µg/mL
MIC Streptococcus pneumoniae (GC 1894) [3]: <0.12 µg/mL
MIC Streptococcus pneumoniae (GC 4565) [3]: 0.25 µg/mL (≈ 0.171 µM)
MIC Streptococcus pyogenes (GC 4563) [3]: 0.5 µg/mL (≈ 0.341 µM)
MIC Streptococcus pneumoniae (ATCC 6301) ([3]; inoculum 5×10^5 CFU/mL, strain ATCC 6301): <0.12 µg/mL
MIC Streptococcus pneumoniae (GC 1894) ([3]; inoculum 5×10^5 CFU/mL, strain GC 1894): <0.12 µg/mL
MIC Streptococcus pyogenes (GC 4563) ([3]; inoculum 5×10^5 CFU/mL, strain GC 4563): 0.5 µg/mL (≈ 0.341 µM)
MIC Streptococcus agalactiae (GC 4564) ([3]; inoculum 5×10^5 CFU/mL, strain GC 4564): 0.5 µg/mL (≈ 0.341 µM)
MIC Streptococcus pneumoniae (GC 4565) ([3]; inoculum 5×10^5 CFU/mL, strain GC 4565): 0.25 µg/mL (≈ 0.171 µM)
MIC Escherichia coli (ATCC 25922) [4]: 128 µg/mL (≈ 87.3 µM)
MIC Escherichia coli (GC 4559) [4]: >128 µg/mL
MIC Escherichia coli (GC 4560) [4]: 2 µg/mL (≈ 1.36 µM)
